In patent publication US10457644B2, “Pyrazol compounds as EAAT3 inhibitors” (Hoffmann-La Roche Inc., priority 2016, dated 2019) one finds Kb and melting point data, which are given here for 22 molecules.

One series has as its target T1, human EAAT3 (Homo sapiens, UniProt P43005).
T1 construct: expressed in transfected cells
T1 sequence (P43005 1-524): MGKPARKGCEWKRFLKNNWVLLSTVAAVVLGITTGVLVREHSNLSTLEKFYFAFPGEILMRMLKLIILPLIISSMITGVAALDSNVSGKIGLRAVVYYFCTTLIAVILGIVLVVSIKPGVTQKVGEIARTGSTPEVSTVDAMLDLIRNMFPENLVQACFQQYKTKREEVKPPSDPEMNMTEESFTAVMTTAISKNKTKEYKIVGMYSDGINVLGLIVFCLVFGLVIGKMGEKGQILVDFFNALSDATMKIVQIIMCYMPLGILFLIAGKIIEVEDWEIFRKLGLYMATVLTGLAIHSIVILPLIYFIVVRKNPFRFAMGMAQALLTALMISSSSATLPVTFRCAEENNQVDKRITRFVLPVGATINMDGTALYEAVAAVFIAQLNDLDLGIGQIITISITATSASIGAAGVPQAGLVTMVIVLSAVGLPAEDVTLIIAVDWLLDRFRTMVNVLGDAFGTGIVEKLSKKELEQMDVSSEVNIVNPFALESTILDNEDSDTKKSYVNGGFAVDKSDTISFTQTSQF
The series is described as follows: FLIPR Membrane Potential (FMP) assay. The class given is cell-based. As to conditions: HEK-293 cells stably expressing human EAAT3; L-glutamate as agonist at 80% of maximum response; antagonist applied 15 min before; Kb by Cheng-Prusoff from IC50. The method, then:
The FLIPR Membrane Potential (FMP) Assay
HEK-293 cells stably expressing human EAAT3 were seeded at 55 000 cells/well in growth medium (DMEM glutamate free (Invitrogen 11960-044), 1% Pen Strep (10 ml/l GIBCO BRL N^o 15140-023), 10% FCS non dialysed heat inactivated, 5 mg/l puromycin) in poly-D-lysine treated 96-well black microtiter plates with clear-bottom. After 24 h, the growth medium was removed and 100 μl/well of Krebs buffer (140 mM NaCl, 4.7 mM KCl, 2.5 mM CaCl2, 1.2 mM MgCl2, 11 mM HEPES, 10 mM D-glucose, pH=7.4) added. The cells were then loaded by adding 100 μl/well FMP assay dye (FLIPR Membrane Potential assay reagent, Molecular Devices). The 96-well plates were then incubated at 37° C. for 1 h. The depolarization of the cells will cause more dye to enter in the cells, where it will bind to intracellular proteins and lipids and cause an increase in the fluorescence signal. Antagonist potency at human EAAT3 was determined by using L-glutamate as agonist at a concentration which gives 80% of the maximum response. The antagonists were applied 15 min before the application of the agonist L-glutamate. The assays were performed at room temperature and measurements done by using a Fluorometric Imaging Plate Reader (FLIPR, Molecular Devices) and filter #2. Responses were measured as peak increase in fluorescence minus basal (i.e. fluorescence without addition of L-glutamate). Kb was determined using the Cheng-Prusoff equation Kb=IC50/[1+(A/EC50)], where IC50 is the concentration of the antagonist producing 50% inhibition, A is the concentration of the agonist against which the IC50 is being determined ([…]) and EC50 is the concentration of the agonist producing […].

Broadly, the Kb is the equilibrium dissociation constant of an antagonist, usually derived from a functional assay. Read a high Kb as a less potent antagonist. A word on the melting point: it is the temperature of the solid-liquid transition. As to `CC(C)(C)NC(=O)c1cc(-c2ccc(F)c(F)c2)cc(-c2ccnn2C(C)(C)C)c1` [Example 36, N-tert-Butyl-3-(2-tert-butyl-pyrazol-3-yl)-5-(3,4-difluorophenyl)-benzamide], the melting point amounted to 197.5 °C. At human EAAT3, this molecule gave a Kb of 440 nM.

Regarding `CC(C)n1nccc1-c1cc(C(=O)NC(C)(C)C)cc(-c2ccccc2)c1` [Example 13, N-tert-Butyl-3-phenyl-5-(2-propan-2-yl-pyrazol-3-yl)-benzamide], the melting point came to 168 °C. Also, the Kb on human EAAT3 was found to be 300 nM.

`COc1ccc(-c2cc(C(=O)NC(C)(C)C)cc(-c3ccnn3C(C)C)c2)cc1` [Example 11, N-tert-Butyl-3-(4-methoxyphenyl)-5-(2-propan-2-yl-pyrazol-3-yl)-benzamide] yielded a melting point of 79 °C. The Kb on human EAAT3 was determined as 290 nM.

`Cc1ccc(-c2cc(C(=O)NC(C)(C)C)cc(-c3ccnn3C(C)(C)C)c2)cc1F` [Example 29, N-tert-Butyl-3-(2-tert-butyl-pyrazol-3-yl)-5-(3-fluoro-4-methyl-phenyl)-benzamide]: the melting point was determined as 202 °C. In addition, at human EAAT3, the Kb turned out to be 390 nM.

For `COc1ccc(-c2cc(C(=O)NC(C)(C)C)cc(-c3ccnn3C(C)(C)C)c2)cc1` [Example 31, N-tert-Butyl-3-(2-tert-butyl-pyrazol-3-yl)-5-(4-methoxy-phenyl)-benzamide], the melting point is 173 °C. For the same molecule, the Kb at human EAAT3 came out at 250 nM.

The molecule `CC(C)(C)NC(=O)c1cc(-c2ccc(Cl)cc2)cc(-c2ccnn2C(C)(C)C)c1` [Example 4, N-tert-Butyl-3-(2-tert-butyl-pyrazol-3-yl)-5-(4-chlorophenyl)-benzamide] gave a melting point of 209 °C. Besides, the Kb on human EAAT3 came out at 320 nM.

For `CC(C)c1ccc(-c2cc(C(=O)NC(C)(C)C)cc(-c3ccnn3C(C)(C)C)c2)cc1` [Example 34, N-tert-Butyl-3-(2-tert-butyl-pyrazol-3-yl)-5-(4-propan-2-yl-phenyl)-benzamide], the melting point turned out to be 209.5 °C. Also, the Kb on human EAAT3 came out at 600 nM.

On to `CCC(C)(C)NC(=O)c1cc(-c2ccc(Cl)cc2)cc(-c2ccnn2C(C)C)c1` [Example 19, 3-(4-Chlorophenyl)-N-(2-methyl-butan-2-yl)-5-(2-propan-2-yl-pyrazol-3-yl)-benzamide], for which the melting point was found to be 72.5 °C. The molecule also yielded a Kb at human EAAT3 of 890 nM.

`CC(C)n1nccc1-c1cc(C(=O)NC(C)(C)C)cc(-c2ccc(Cl)cc2)c1` [Example 5, N-tert-Butyl-3-(4-chlorophenyl)-5-(2-propan-2-yl-pyrazol-3-yl)-benzamide] displayed a melting point of 84 °C. Also, the Kb on human EAAT3 turned out to be 170 nM.

In the case of `Cc1ccc(-c2cc(C(=O)NC(C)(C)C)cc(-c3ccnn3C(C)(C)C)c2)cc1` [Example 30, N-tert-Butyl-3-(2-tert-butyl-pyrazol-3-yl)-5-(4-methyl-phenyl)-benzamide], the melting point is 193 °C. In addition, the Kb at human EAAT3 worked out at 370 nM.

In the case of `CC(C)n1nccc1-c1cc(C(=O)NC(C)(C)C)cc(-c2ccc(F)c(Cl)c2)c1` [Example 12, N-tert-Butyl-3-(3-chloro-4-fluorophenyl)-5-(2-propan-2-yl-pyrazol-3-yl)-benzamide], the melting point is 81 °C. Besides, the Kb on human EAAT3 amounted to 610 nM.

In turn, `CC(C)(C)NC(=O)c1cc(-c2ccc(F)cc2)cc(-c2ccnn2C(C)(C)C)c1` [Example 2, N-tert-Butyl-3-(2-tert-butyl-pyrazol-3-yl)-5-(4-fluorophenyl)-benzamide] registered a melting point of 210 °C. On human EAAT3, this molecule yielded a Kb of 190 nM.

`CC(C)n1nccc1-c1cc(C(=O)NC(C)(C)CO)cc(-c2ccc(Cl)cc2)c1` [Example 39, 3-(4-Chlorophenyl)-N-(1-hydroxy-2-methyl-propan-2-yl)-5-(2-propan-2-yl-pyrazol-3-yl)-benzamide] had a melting point of 80.5 °C. The same molecule displayed a Kb on human EAAT3 of 270 nM.

The molecule `Cc1cc(-c2cc(C(=O)NC(C)(C)C)cc(-c3ccnn3C(C)C)c2)ccc1F` [Example 15, N-tert-Butyl-3-(4-fluoro-3-methyl-phenyl)-5-(2-propan-2-yl-pyrazol-3-yl)-benzamide] came in with a melting point of 155 °C. On human EAAT3, the Kb turned out to be 1280 nM.

In turn, `CC(C)(C)n1nccc1-c1cc(C(=O)NC(C)(C)C(F)(F)F)cc(-c2ccc(Cl)cc2)c1` [Example 42, 3-(2-tert-Butylpyrazol-3-yl)-5-(4-chlorophenyl)-N-(1,1,1-trifluoro-2-methyl-propan-2-yl)-benzamide] returned a melting point of 81 °C. Besides, on human EAAT3, the Kb came out at 890 nM.

In turn, `CC(C)(C)NC(=O)c1cc(-c2ccc(Cl)c(F)c2)cc(-c2ccnn2C(C)(C)C)c1` [Example 33, N-tert-Butyl-3-(2-tert-butyl-pyrazol-3-yl)-5-(4-chloro-3-fluoro-phenyl)-benzamide] had a melting point of 225 °C. Also, the Kb at human EAAT3 is 290 nM.

As for `CC(C)(C)NC(=O)c1cc(-c2ccc(C#N)cc2)cc(-c2ccnn2C(C)(C)C)c1` [Example 38, N-tert-Butyl-3-(2-tert-butyl-pyrazol-3-yl)-5-(4-cyano-phenyl)-benzamide], the melting point was found to be 201.5 °C. Besides, the Kb on human EAAT3 stood at 240 nM.

Molecule `CC(C)(C)NC(=O)c1cc(-c2ccc(C(F)(F)F)cc2)cc(-c2ccnn2CC2CC2)c1` [Example 44, N-tert-Butyl-3-[2-(cyclopropylmethyl)-pyrazol-3-yl]-5-[4-(trifluoromethyl)-phenyl]-benzamide] yielded a melting point of 69 °C. Further, the Kb at human EAAT3 worked out at 400 nM.

In turn, `CC(C)(C)NC(=O)c1cc(-c2ccc(F)cc2)cc(-c2ccnn2CC2CC2)c1` [Example 46, N-tert-Butyl-3-[2-(cyclopropylmethyl)-pyrazol-3-yl]-5-(4-fluorophenyl)-benzamide] returned a melting point of 188 °C. Moreover, the Kb on human EAAT3 turned out to be 280 nM.

`CCn1nccc1-c1cc(C(=O)NC(C)(C)C)cc(-c2ccc(Cl)cc2)c1` [Example 24, N-tert-Butyl-3-(4-chlorophenyl)-5-(2-ethyl-pyrazol-3-yl)-benzamide]: the melting point came out at 68 °C. This molecule also gave a Kb at human EAAT3 of 170 nM.

`Cc1cc(-c2cc(C(=O)NC(C)(C)C)cc(-c3ccnn3C(C)(C)C)c2)ccc1F` [Example 27, N-tert-Butyl-3-(2-tert-butyl-pyrazol-3-yl)-5-(4-fluoro-3-methyl-phenyl)-benzamide] displayed a melting point of 186 °C. This molecule came in with a Kb at human EAAT3 of 930 nM.

Take `CC(C)(NC(=O)c1cc(-c2ccc(Cl)cc2)cc(-c2ccnn2C(C)(C)C)c1)C1CC1` [Example 35, 3-(2-tert-Butyl-pyrazol-3-yl)-5-(4-chlorophenyl)-N-(2-cyclopropyl-propan-2-yl)-benzamide]: the melting point came out at 166 °C. Moreover, the Kb on human EAAT3 is 920 nM.
